According to patent publication US20100004168A1, “Use of Crystallin For The Modulation of Angiogenesis” (The Johns Hopkins University, priority 2006, published 2010):
“Also recorded” adds a separate entry of the source.

What was measured:
[1] = tested on: Human astrocyte cell line (SVG); assay: VEGF and crystallin immunostaining in cultured astrocytes exposed to 3-nitropropionic acid; assay type: cell-based; conditions: 10 μM 3-NP
Method: Human astrocyte cell line (SVG) was treated with 10 μM 3-NP, and cells were harvested for immunostaining with antibodies to VEGF and crystallins after 6, 12, and 24 hours. […] Fluorescence with both of the antibodies is increased after 12 hours of exposure to 3-NP in culture. […] Nuclei were counterstained with DAPI.
It has been shown that astrocytes are sensitive to hypoxia, which induces them to release VEGF (Chow et al., 2001; Sandercoe et al., 2003). To determine if astrocytes also express β- and γ-crystallins in response to hypoxia, 3-nitropropionic acid, an irreversible inhibitor of mitochondrial succinate dehydrogenase activity was used (Cavaliere et al., Neurochem Int 38:189-197, 2001). It can be considered a model substance to study hypoxic neuronal damage (Riepe et al., Neurosci Lett 211:9-12, 1996).
The SVG cell line used in this study was derived from human fetal astrocytes transformed with SV40 large T antigen (Major et al., J Biol Chem 278:13512-13519, 1985; Tornatore et al., Cell Transplant 5:145-163, 1996). Cultures of the human fetal astrocyte cell line (SVG) were maintained in Dulbecco's modified Eagle's medium with 2 mM L-glutamine, 10% fetal bovine serum, and streptomycin penicillin-fungizone solutions. Cells grown in 60-mm dishes were treated with 10 μM 3-nitropropionic acid (3NP) for 6, 12, and 24 hours at 37° C. and then fixed with paraformaldehyde (4%) for 15 minutes and blocked with 3% BSA at 4° C. overnight. The fixed cells were processed following standard techniques for immunofluorescence using VEGF and crystallin antibodies as indicated earlier.

[2] = tested on: Human Retinal Endothelial Cells (HREC); assay: Matrigel tube formation in cultured human retinal endothelial cells; assay type: cell-based; conditions: exogenously applied protein, Matrigel pre-coated plates, VEGF omitted from media supplement
Method: HREC were cultured in EGM2MV media according to the manufacturer's protocol either in the absence (FIG. 25A), or presence (FIG. 25B) of pre-coated Matrigel matrix (Cambrex). (4× magnification)
FIG. 28 is a graph showing the effect of Exogenous γ-crystallins, VEGF, and PEDF on Tube Length in Cultured Human Retinal Endothelial Cells (HREC): HREC grown on Matrigel-coated tissue culture plates in EGM2MV media with VEGF omitted from the media supplement. Cells were treated with BSA (control), 0.2 μg/ml VEGF, 0.6 μg/ml VEGF, concentrations of […] ranging from 0.5 μg/ml to 1.0 μg/ml, or 0.2 μg/ml PEDF. Average tube length was calculated after measuring all of the tubes formed in three separate optical fields from 7 individual culture dishes.
As reported above, a functionally significant effect of β/γ crystallins on vascular remodeling the effect of β/γ crystallins was established on human umbilical vein endothelial cells (HUVEC) in culture. Because the behavior of vascular endothelial cells varies according to their source and the resident tissue environment, the effect of β/γ crystallins on cultured human retinal endothelial cells (HREC) was subsequently analyzed. […] FIG. 28 quantifies these effects.

[3] = tested on: HUVEC (Human umbilical vein endothelial cells); assay: Three-dimensional tube formation assay of HUVEC on Matrigel; assay type: cell-based; conditions: HUVEC on Matrigel treated with purified proteins (crystallins 0.5 μg/ml), vs controls
Excerpt: In order to better understand the functional role of β/γ-crystallins in vascular remodeling, HUVEC (Human umbilical vein endothelial cells) were established in culture. HUVEC differentiation into tube-like structures in three dimensional Matrigel cultures has been commonly used as a model system to studying angiogenesis (Edelman et al. Exp. Eye Res. 80(2): 249-58, 2005; Xin et al. J. Biol. Chem. 274(13): 9116-21, 1999). After plating HUVEC onto Matrigel, the cells differentiated to form tubes and a capillary-like network at the minimum seeding density of 5×10^3 cells/well (FIGS. 20A-20F). These differentiated cells form tubes and express crystallins (FIGS. 21A and 21B).
The effect of β/γ crystallins and VEGF on HUVEC tube formation and regression was examined. VEGF protein used in this study was purchased from R&D Systems (Minneapolis, Minn.) and the polyclonal antibody was from Santa Cruz Biotechnology (Santa Cruz, Calif.). To prepare the crystallin proteins, lenses dissected from bovine eyes were homogenized in 7 volumes of 0.05M Tris buffer, pH 7.4 containing 0.1M KCl, 10 mM 2-mercaptoethanol and 0.02% NaN3. […] Fractions were collected and peaks analyzed by SDS-PAGE. […]
The cells were exposed to 0.2 μg/ml to 2 μg/ml of crystallin proteins, with a maximum effect at 0.5 μg/ml with negligible cell death as determined by trypan-blue exclusion. […]

[4] = tested on: Human Retinal Endothelial Cells (HREC); conditions: relatively high dose tested (0.2 μg/ml PEDF); cited from earlier work

O=C(O)CC[N+](=O)[O-] [3-NP, 3-nitropropionic acid]
VEGF expression (immunostaining) ([1]; 6 hours): induction; also recorded: distinct cytoplasmic staining | β- and γ-crystallin expression (immunostaining) ([1]; 6 hours): induction; also recorded: distinct cytoplasmic staining | VEGF antibody fluorescence ([1]; 12 hours): increased | γ-crystallin antibody fluorescence ([1]; 12 hours): increased | cell death ([1]; 24 hours): most of the cells have died

VEGF
HREC vessel-like tube formation [2]: enhanced | tube length (tube processes) [3]: longer tubes

B1: PEDF: PEDF added at 0.2 μg/ml to HREC cultures (protein, UniProt P36955 20-418, looked up)
Pigment epithelium-derived …: QNPASPPEEGSPDPDSTGALVEEEDPFFKVPVNKLAAAVSNFGYDLYRVRSSTSPTTNVLLSPLSVATALSALSLGAEQRTESIIHRALYYDLISSPDIHGTYKELLDTVTAPQKNLKSASRIVFEKKLRIKSSFVAPLEKSYGTRPRVLTGNPRLDLQEINNWVQAQMKGKLARSTKEIPDEISILLLGVAHFKGQWVTKFDSRKTSLEDFYLDEERTVRVPMMSDPKAVLRYGLDSDLSCKIAQLPLTGSMSIIFFLPLKVTQNLTLIEESLTSEFIHDIDRELKTVQAVLTVPKLKLSYEGEVTKSLQEMKLQSLFDSPDFSKITGKPIKLTQVEHRAGFEWNEDGAGTTPSPGLQPAHLTFPLDYHLNQPFIFVLRDTDTGALLFIGKILDPRGP
tube formation [4]: stimulate tube formation
